Assay results as given in ChEMBL document CHEMBL1201862, “PubChem BioAssay data set” (2004).
Activity calls are given as the source filed them.

How the values were obtained:
[1] = target: T1, Endoribonuclease toxin MazF (Escherichia coli K-12, UniProt P0AE70); test: fluorescent RNA oligo signal without MazF, dose response, counter-screen for MazEF activator project, biochemical, fluorescence, single-stranded RNase substrate (AID 588502); format: functional
T1 sequence (P0AE70 whole entry): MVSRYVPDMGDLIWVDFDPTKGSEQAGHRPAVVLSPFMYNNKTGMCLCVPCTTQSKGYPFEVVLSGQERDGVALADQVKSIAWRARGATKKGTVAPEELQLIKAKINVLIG

[2] = target: T1, Endoribonuclease toxin MazF; test: MazF toxin RNase activators, dose response, biochemical, fluorescence, single-stranded RNA substrate, uHTS hits (AID 588481); format: functional
[3] = off-target signal loss in HeLa-CEM21 co-culture – HeLa F-luc CTL cells, cherry-picked, counter-screen for HIV-1 Env fusion inhibitor project, dose response (AID 652040); format: functional, cell-based;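 note: potency for signal decrease marking cytotoxic or nonspecific inhibition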
[4] = inhibitors of clade B AD8 Env fusion, dose response, cell-based, cherry-pick (AID 652062); format: functional;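 note: luciferase signal from cell-cell fusion driven by HIV-1 clade B AD8 Env; potency is for inhibitors of fusion seen as a drop in luminescence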
[5] = inhibitors of HIV Env-driven cell fusion, dose response, cherry-pick (AID 652057); format: functional, cell-based
[6] = ZM109 Env clade C HIV-1 fusion inhibitors, dose response, HeLa effector, CEM target cells, luciferase, cherry-pick (AID 652058); format: functional, cell-based
[7] = target: Heat shock protein HSP 90-alpha (Homo sapiens, UniProt P07900); format: functional, organism-based
[8] = target: DNA dC->dU-editing enzyme APOBEC-3G (Homo sapiens, UniProt Q9HC16); test: Dose Response confirmation of small molecule APOBEC3G DNA Deaminase Inhibitors via a fluorescence-based single-stranded DNA deaminase assay. [Related pubchem assays (depositor defined):AID493012, AID493028]; format: functional
H9c2 = test: cells; format: functional, cell-based; details: Rattus norvegicus, H9c2, Myocardium;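 note: confirmatory concentration-response retest of ultra-high-throughput screening hits for modulation of myocardial damage; cell death induced by hydrogen peroxide oxidative stress; compound pretreatment for 60 min then peroxide exposure for 2 h; potency is for protecting the cells against peroxide damage rather than for killing them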
[9] = target: T2, Corticotropin-releasing factor receptor 2/Corticotropin-releasing factor-binding protein (Homo sapiens, UniProt P24387+Q13324); test: activators of CRF receptor 2 with binding protein – uHTS hits, confirmation (AID 602473); format: functional; details: read-out: EC50_Mean
T2 sequence (Q13324 whole entry): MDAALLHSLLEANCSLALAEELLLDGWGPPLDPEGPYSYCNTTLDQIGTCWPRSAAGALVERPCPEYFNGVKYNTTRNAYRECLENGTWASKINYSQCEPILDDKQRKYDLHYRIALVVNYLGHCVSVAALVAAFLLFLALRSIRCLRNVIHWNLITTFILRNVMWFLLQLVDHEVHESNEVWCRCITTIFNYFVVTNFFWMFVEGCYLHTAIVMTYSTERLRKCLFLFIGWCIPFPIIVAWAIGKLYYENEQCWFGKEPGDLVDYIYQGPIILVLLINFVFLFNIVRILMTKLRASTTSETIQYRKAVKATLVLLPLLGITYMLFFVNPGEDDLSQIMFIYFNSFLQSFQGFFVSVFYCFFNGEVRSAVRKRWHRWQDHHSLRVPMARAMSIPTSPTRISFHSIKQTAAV
T2 sequence (P24387 whole entry): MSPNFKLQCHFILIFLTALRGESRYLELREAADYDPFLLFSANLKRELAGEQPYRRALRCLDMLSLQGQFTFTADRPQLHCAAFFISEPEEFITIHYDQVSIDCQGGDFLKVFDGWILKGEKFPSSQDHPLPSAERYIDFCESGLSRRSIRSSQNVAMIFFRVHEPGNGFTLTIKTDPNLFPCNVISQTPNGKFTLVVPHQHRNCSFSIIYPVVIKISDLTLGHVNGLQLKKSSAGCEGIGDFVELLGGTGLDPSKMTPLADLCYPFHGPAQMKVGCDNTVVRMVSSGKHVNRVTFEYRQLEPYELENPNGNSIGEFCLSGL

[10] = target: T3, DNA repair and recombination protein RAD54-like (Homo sapiens, UniProt Q92698); test: inhibitors of human RAD54 branch migration, confirmation, biochemical, fluorescence, cherry-picked samples, dose series (AID 651657); format: functional
T3 sequence (Q92698 whole entry): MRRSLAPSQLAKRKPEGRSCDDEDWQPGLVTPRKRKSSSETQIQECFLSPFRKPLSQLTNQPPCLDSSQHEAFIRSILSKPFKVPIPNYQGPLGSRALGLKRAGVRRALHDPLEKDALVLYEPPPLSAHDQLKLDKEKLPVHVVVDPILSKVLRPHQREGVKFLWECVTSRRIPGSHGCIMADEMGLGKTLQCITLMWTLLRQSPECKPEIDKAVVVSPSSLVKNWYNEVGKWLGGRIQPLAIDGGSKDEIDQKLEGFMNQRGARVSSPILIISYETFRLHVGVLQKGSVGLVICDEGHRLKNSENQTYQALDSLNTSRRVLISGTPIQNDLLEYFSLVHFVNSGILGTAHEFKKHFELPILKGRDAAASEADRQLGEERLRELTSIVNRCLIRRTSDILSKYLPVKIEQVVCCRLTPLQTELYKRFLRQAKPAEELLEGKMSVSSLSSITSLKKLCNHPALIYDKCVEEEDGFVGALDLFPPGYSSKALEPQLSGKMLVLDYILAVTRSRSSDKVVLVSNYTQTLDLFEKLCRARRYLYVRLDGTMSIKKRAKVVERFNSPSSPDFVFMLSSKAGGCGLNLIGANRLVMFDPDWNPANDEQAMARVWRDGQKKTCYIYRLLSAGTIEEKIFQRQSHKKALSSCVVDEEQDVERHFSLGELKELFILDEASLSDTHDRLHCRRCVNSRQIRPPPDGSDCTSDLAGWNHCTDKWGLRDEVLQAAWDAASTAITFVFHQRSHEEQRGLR

[11] = THP-1 cell cytotoxicity, dose response, cytotoxicity control for non-replicating M. tuberculosis project (AID 489025); format: functional
cells [12] = format: functional
[13] = target: T4, Ubiquitin-conjugating enzyme E2 N (Homo sapiens, UniProt P61088); format: functional;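 note: Dose-response confirmation in a TR-FRET assay detecting UBC13-driven polyubiquitin chain formation, inhibition measured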
T4 sequence (P61088 whole entry): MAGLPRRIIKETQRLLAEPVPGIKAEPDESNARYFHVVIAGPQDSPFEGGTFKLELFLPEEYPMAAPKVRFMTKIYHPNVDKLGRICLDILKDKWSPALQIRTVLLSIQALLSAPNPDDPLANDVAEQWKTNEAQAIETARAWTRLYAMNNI

[14] = inhibitors of intracellular T. cruzi replication, confirmation, NIH3T3 host cells, beta-gal luminescence (AID 2044); format: functional, cell-based;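 note: intracellular parasites grown in NIH/3T3 mouse fibroblasts as host cells; luminescent beta-galactosidase reporter signal from transgenic T. cruzi replicating inside host cells; inhibitors lower the luminescence signal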
[15] = cytotoxicity toward NIH3T3 fibroblasts, dose response, counter-screen, cell-based, ATP luminescence, mouse fibroblasts (AID 2010); format: functional;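 note: cells exposed to compound for about 90 hours before reading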
Leucine aminopeptidase = target: T5, Leucine aminopeptidase (Plasmodium falciparum 3D7, UniProt Q8IL11); test: P. falciparum M17LAP inhibitors, primary screen, biochemical, fluorogenic H-Leu-NHMec substrate, 1536-well (AID 1619); format: functional
T5 sequence (Q8IL11 whole entry): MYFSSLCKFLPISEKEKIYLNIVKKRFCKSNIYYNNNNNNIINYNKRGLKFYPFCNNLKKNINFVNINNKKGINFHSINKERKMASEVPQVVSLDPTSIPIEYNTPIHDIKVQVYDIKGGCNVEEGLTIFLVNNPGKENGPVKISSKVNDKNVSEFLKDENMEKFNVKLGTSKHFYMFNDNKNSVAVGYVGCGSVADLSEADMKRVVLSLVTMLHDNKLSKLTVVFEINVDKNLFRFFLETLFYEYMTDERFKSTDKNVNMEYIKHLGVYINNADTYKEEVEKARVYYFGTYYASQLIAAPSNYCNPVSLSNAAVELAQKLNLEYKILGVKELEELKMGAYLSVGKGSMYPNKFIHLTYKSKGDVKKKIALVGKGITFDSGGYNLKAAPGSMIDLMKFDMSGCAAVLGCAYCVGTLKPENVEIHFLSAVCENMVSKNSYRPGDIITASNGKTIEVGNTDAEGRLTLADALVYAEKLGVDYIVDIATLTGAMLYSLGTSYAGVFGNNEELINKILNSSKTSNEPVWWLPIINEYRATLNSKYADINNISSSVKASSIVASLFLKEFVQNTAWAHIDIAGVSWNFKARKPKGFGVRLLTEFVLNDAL

[16] = target: T6, DNA repair protein RAD52 homolog (Homo sapiens, UniProt P43351); format: functional, biochemical
T6 sequence (P43351 whole entry): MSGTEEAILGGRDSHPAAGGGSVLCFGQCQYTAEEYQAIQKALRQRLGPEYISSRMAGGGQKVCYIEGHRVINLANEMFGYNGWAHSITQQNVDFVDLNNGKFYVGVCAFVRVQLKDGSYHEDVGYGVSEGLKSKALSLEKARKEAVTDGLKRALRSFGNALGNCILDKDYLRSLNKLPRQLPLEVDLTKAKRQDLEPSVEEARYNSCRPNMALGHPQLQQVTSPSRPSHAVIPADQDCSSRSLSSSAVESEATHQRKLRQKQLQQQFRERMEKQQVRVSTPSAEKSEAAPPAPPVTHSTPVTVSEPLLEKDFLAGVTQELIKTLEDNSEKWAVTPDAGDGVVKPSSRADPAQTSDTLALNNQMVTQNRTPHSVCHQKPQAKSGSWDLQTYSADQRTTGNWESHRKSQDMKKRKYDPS

H4 = test: Luminescence Cell-Based Dose Response HTS to Identify Activators of 5'UTR Stem-Loop Driven Prion Protein mRNA Translation in H4 Neuroglioblastoma Cells. [Related pubchem assays: 1829 (Project Summary), 1814 (Primary HTS)]; format: functional; details: Homo sapiens
[17] = Luminescence Cell-Based Dose Confirmation HTS to Identify Activators of 5'UTR Stem-Loop Driven Alpha-Synuclein mRNA Translation in H4 Neuroglioblastoma Cells. [Related pubchem assays: 1829 (Project Summary), 1814 (Primary HTS)]; format: functional
[18] = Luminescence Cell-Based Dose Response HTS to Identify Activators of Luciferase Translation or Activity in H4 […] Cells. [Related pubchem assays: 1829 (Project Summary), 1814 (Primary HTS)]; format: functional
cells [19] = format: functional, cell-based
cells [20] = format: functional, cell-based; remark: listed apart in the source

Chain of DNA dC->dU-editing enzyme APOBEC-3G (Q9HC16 whole entry): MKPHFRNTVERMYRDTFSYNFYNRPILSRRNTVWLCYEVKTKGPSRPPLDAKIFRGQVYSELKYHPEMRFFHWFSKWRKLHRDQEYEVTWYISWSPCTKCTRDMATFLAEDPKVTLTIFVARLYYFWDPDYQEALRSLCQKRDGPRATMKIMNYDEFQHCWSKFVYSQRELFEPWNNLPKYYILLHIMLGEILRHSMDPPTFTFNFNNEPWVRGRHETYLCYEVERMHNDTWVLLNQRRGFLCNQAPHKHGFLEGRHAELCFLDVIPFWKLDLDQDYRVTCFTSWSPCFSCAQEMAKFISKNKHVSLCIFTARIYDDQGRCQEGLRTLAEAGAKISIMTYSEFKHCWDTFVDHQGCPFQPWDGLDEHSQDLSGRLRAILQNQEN

Cn1cc(Cl)c(C(=O)N/N=C/c2ccc3c4c(cccc24)CC3)n1
EC50 [1]: > 99 µM (inactive)
EC50 [2]: > 99 µM (inactive)

COC(=O)[C@@]1(C)[C@H]2C(=O)N(Cc3ccccc3)C(=O)[C@H]2[C@H]2CN=C(SCC3CC3)N21
AC50 [3]: 2.95 µM (active)
AC50 [4]: 7.31 µM (active)
AC50 [5]: 2.13 µM (active)
AC50 [6]: 2.3 µM (active)

CC1(C(=O)N/N=C/c2ccc3c(c2)OCO3)CC1(Br)Br (centres undefined)
AC50 [3]: 7.57 µM (active)
AC50 [4]: 7.47 µM (active)
AC50 [5]: 5.4 µM (active)
AC50 [6]: 4.12 µM (active)

CCOC(=O)c1ccc(N2C(=O)CC(N3CCC(C(=O)OCC)CC3)C2=O)cc1 (centres undefined)
AC50 [7]: 7.24 µM (active)

Cc1c(C(=O)Nc2ccc3c(c2)OCO3)sc2nc(-c3ccccc3)cn12
EC50 [1]: > 99 µM (inactive)
EC50 [2]: > 99 µM (inactive)

CC(C)=CCc1c2c(c3occ(-c4ccc(O)c(O)c4)c(=O)c3c1O)C=CC(C)(C)O2 [POMIFERIN]
AC50 [7]: 13.3 µM (active)

C=CCn1c(S)nnc1-c1ccc2ncccc2c1
IC50 [8]: 11.9 µM (active)

COc1ccc(-c2cc(=O)oc3c(C)c(O)c(CN(C)C)cc23)cc1
AC50 [3]: 7.97 µM (active)
AC50 [4]: 17.4 µM (active)
AC50 [5]: 13 µM (active)
IC50 (H9c2): > 79 µM (inactive)
AC50 [6]: 18.1 µM (active)

COC(=O)c1c(NC(=O)c2ccco2)sc2c1CCN(C(C)C)C2
EC50 [9]: > 53 µM (inactive)
AC50 [10]: 25.4 µM (active)

Nc1nc2ccccc2n1C(=O)c1ccc(F)cc1
CC50 [11]: > 40 µM (active)
IC50 (cells [12]): 9.58 µM (active)

COC(=O)C1=C(c2ccc(F)cc2OCc2ccccc2)C[C@@H]2CC[C@H]1N2C(=O)NC1CCN(Cc2ccccc2)CC1
IC50 [13]: > 20 µM (inactive)

Cc1ccc(C(=O)N/C(=C/c2ccc(-c3cccc([N+](=O)[O-])c3)o2)C(=O)NCCCN(C)C)cc1
IC50 [13]: > 20 µM (inactive)

CCC(CC)COC(=O)C(C#N)c1nc2ccccc2nc1N1CCN(CC)CC1 (centres undefined)
CC50 [11]: 26.2 µM (active)
EC50 [14]: 4.05 µM (active)
IC50 (cells [12]): 17.9 µM (active)
EC50 [15]: > 60 µM (not active)

Sc1nc2ccccc2c2nc(-c3cccnc3)nn12
IC50 [13]: > 20 µM (inactive)

COc1ccccc1NS(=O)(=O)c1cc(NC(=O)c2cccs2)ccc1N1CCCC1
IC50 [8]: 37.1 µM (active)

Cc1ccccc1C(=O)NCC(=O)NNC(=S)NC(=O)c1ccccc1
IC50 [13]: > 20 µM (inactive)
IC50 (Leucine aminopeptidase): 47.4 µM (active)

COc1cc(C(=O)NC2CCN(C)CC2)ccc1Nc1ncc2c(n1)N(CCc1ccccc1)CCC(=O)N2C
AC50 [16]: 8.71 µM (active)

N=C(Cc1cccs1)NOC(=O)COc1ccccc1Cl
EC50 (H4): 46 µM (active)
EC50 [17]: 7.6 µM (active)
EC50 [18]: 50.4 µM (active)

CC(=O)Nc1cccc(NC(=N)Nc2nc(C)cc(C)n2)c1
AC50 [16]: 18.8 µM (active)

Cn1c(-c2ccc3ccccc3n2)[n+](C)c2ccccc21
EC50 (H4): 40 µM (active)
EC50 [17]: > 120 µM (not active)
EC50 [18]: 12.7 µM (active)

CCOc1ccc2nc(NC(=S)N(C)C)sc2c1
IC50 [8]: 62.4 µM (active)

C[C@]12CC[C@H](OC(=O)[C@@H](N)CCCCN)C[C@@H]1CC[C@@H]1[C@@H]2CC[C@@]2(C)[C@H]1CC[C@]2(C)O
AC50 [16]: 1.93 µM (active)

CN(C)C(CNC(=O)CCCN1C(=O)c2cccc3cccc(c23)C1=O)c1ccccc1 (centres undefined)
AC50 [10]: 43.4 µM (active)

C[C@@H](CN1CCC[C@H]1CN1C(N)=NC[C@@H]1Cc1ccccc1)N1C[C@@H](Cc2ccccc2)N(CCCC2CCCC2)C1=N
IC50 [13]: > 20 µM (inactive)

Cc1cc2ccc3ccccc3c2cc1CN(C)C
EC50 (cells [19]): > 350 µM (not active)
AC50 [10]: 38.3 µM (active)
EC50 (cells [20]): > 350 µM (not active)
